Common to all, as to format: biochemical
One assay concerns the target T1, recombinant human VAP-1 (Homo sapiens, UniProt Q16853).
T1 construct: purchased R&D systems
T1 sequence (Q16853 1-763): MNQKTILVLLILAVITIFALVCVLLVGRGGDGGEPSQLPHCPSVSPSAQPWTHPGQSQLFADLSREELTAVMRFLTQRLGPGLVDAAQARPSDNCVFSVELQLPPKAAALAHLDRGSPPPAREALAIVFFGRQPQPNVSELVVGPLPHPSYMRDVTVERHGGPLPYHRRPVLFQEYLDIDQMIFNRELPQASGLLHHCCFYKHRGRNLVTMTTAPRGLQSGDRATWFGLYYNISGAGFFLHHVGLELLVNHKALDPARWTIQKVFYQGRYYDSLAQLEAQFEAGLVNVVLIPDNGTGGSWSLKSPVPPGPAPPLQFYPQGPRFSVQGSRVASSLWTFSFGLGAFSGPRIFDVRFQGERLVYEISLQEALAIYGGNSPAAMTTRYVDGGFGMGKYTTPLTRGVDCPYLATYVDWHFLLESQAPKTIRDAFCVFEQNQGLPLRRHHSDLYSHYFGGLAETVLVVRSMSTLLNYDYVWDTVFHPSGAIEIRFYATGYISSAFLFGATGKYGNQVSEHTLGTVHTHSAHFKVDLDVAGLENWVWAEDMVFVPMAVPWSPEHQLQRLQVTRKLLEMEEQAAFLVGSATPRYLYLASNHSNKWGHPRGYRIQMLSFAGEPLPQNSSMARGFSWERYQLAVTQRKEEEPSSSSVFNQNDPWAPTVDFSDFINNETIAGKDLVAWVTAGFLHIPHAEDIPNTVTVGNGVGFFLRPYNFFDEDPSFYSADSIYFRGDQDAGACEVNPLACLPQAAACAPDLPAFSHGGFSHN
In words: Activity on recombinant human VAP-1, HRP-coupled Amplex Red hydrogen peroxide assay. Particulars: substrate 1 mM benzylamine; compound incubated with enzyme at 37° C. for 30 minutes; pH 7.4; read-out: Inhibitory Activity (IC50, nM) human VAP-1. The method, boiled down:
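Fluorescence of resorufin formed from H2O2 (ex 544 nm, em 590 nm) was tracked for 1-2 h after adding 1 mM benzylamine, 200 uM Amplex Red and 1 U/mL HRP to enzyme pretreated with compound for 30 min at 37 °C. IC50 values derive from four-variable logistic fits.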

For assay [1], the target named is T2, recombinant human MAO-A (monoamine oxidase-A) (Homo sapiens, UniProt P21397).
T2 construct: purchased Sigma-Aldrich
T2 sequence (P21397 1-527): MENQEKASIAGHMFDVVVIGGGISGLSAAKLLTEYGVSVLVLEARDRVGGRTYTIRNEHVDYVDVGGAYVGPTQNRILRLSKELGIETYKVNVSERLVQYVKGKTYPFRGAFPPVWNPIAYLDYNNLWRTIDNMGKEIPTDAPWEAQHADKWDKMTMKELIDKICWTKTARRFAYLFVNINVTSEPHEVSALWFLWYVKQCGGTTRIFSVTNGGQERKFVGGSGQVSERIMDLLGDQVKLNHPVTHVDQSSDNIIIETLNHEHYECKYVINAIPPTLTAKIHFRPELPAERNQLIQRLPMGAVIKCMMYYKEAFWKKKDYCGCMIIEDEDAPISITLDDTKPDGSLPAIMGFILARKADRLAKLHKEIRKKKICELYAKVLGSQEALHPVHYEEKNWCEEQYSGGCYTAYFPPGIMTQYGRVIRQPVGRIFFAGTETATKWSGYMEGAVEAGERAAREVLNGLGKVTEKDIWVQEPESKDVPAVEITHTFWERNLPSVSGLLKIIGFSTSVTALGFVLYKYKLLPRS
In words: Activity on recombinant human MAO-A, method similar to the VAP-1 assay. Particulars: substrate 0.5 mM tyramine; read-out: Inhibitory Activity (IC50, nM) MAO-A. The method, boiled down:
(§1)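 Fluorescence (544/590 nm) of resorufin formed from Amplex Red by HRP and enzyme-generated H2O2 was followed over 1-2 h. Substrates were 0.5 mM tyramine for MAO-A and 1 mM benzylamine for MAO-B; compounds were preincubated with enzyme for 30 min at 37° C. IC50 came from four-parameter logistic fitting of signal-rate inhibition.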

Assay [2] deals with T3, recombinant human MAO-B (monoamine oxidase-B) (Homo sapiens, UniProt P27338).
T3 construct: purchased Sigma-Aldrich
T3 sequence (P27338 1-520): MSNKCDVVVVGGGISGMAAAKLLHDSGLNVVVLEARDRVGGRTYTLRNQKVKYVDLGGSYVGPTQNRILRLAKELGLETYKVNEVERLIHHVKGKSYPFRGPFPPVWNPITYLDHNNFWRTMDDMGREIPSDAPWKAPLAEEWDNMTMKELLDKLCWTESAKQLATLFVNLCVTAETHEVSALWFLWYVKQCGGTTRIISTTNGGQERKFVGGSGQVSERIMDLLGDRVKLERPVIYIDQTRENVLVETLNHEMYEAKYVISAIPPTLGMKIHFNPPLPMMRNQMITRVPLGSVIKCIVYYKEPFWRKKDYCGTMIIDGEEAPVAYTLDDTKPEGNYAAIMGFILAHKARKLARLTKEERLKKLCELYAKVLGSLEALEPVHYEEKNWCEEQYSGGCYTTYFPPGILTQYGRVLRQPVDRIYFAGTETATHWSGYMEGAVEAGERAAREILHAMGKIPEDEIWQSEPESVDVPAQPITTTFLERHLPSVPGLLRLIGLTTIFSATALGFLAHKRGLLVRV
Description: Activity on recombinant human MAO-B, method similar to the VAP-1 assay. Particulars: substrate 1 mM benzylamine; read-out: Inhibitory Activity (IC50, nM) MAO-B. The method, boiled down: as §1

The target of assay [3] is T4, recombinant human DAO (diamine oxidase) (Homo sapiens, UniProt P19801).
T4 construct: purchased R&D systems
T4 sequence (P19801 20-751): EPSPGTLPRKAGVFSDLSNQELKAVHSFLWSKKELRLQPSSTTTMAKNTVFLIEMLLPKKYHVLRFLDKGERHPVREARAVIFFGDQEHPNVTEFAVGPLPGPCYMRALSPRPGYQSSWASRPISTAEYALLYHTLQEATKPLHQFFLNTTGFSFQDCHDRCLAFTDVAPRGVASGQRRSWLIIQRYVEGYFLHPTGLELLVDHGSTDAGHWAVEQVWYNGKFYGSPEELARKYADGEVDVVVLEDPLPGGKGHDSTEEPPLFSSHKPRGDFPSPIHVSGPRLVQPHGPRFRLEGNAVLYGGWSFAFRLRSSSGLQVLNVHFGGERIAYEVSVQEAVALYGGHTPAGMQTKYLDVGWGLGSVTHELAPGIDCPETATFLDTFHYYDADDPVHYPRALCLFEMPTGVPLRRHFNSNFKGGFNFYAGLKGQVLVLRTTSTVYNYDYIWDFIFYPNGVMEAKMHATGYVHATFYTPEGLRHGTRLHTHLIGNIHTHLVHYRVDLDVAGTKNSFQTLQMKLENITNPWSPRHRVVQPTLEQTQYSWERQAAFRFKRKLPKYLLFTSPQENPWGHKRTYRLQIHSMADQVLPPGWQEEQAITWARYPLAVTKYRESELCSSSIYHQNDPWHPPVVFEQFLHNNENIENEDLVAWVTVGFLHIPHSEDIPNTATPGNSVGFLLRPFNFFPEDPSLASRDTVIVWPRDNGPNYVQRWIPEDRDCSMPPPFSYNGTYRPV
In words: Activity on recombinant human DAO, method similar to the VAP-1 assay. Particulars: substrate 1 mM putrescine; read-out: Inhibitory Activity (IC50, nM) DAO. The method, boiled down:
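Inhibition of recombinant human diamine oxidase (DAO, R&D systems) was assessed by the same approach as the VAP-1 assay, using 1 mM putrescine as substrate. Hydrogen peroxide formed was detected through an HRP-coupled Amplex Red reaction yielding fluorescent resorufin, read at 544 nm excitation and 590 nm emission. IC50 values came from four-parameter logistic fitting in GraphPad Prism.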

Structures can show the parent of a compound that is named as a salt.

A word on the IC50: it is the concentration needed to halve the response being measured.

`NC/C(=C\F)Cn1ncn(Cc2ccc(-c3ccc4c(c3F)NCCO4)s2)c1=O` [Example 106, 2-[(E)-2-(aminomethyl)-3-fluoro-allyl]-4-[[5-(5-fluoro-3,4-dihydro-2H-1,4-benzoxazin-6-yl)-2-thienyl]methyl]-1,2,4-triazol-3-one]: the half-maximal inhibitory concentration (IC50) at recombinant human VAP-1 came to 0.8 nM; in assay [1], 11000 nM; in assay [2], 250 nM; in assay [3], 2500 nM.

In the case of `NC/C(=C\F)Cn1ncn(Cc2ccc(-c3ccc4c(c3)C(=O)NC4)s2)c1=O` [Example 67, 6-[5-(1-[(2E)-2-(aminomethyl)-3-fluoroprop-2-en-1-yl]-5-oxo-1,5-dihydro-4H-1,2,4-triazol-4-ylmethyl)thiophen-2-yl]-2,3-dihydro-1H-isoindol-1-one hydrochloride], the IC50 was 0.3 nM on recombinant human VAP-1, greater than 100000 nM in assay [1], 11000 nM in assay [2] and 1200 nM in assay [3].

On to `NC/C(=C\F)Cn1ncn(Cc2ccc(C#CCN3CCS(=O)(=O)CC3)s2)c1=O` [Example 132, 2-[(2E)-2-(aminomethyl)-3-fluoroprop-2-en-1-yl]-4-(5-[3-(1,1-dioxidothiomorpholin-4-yl)prop-1-yn-1-yl]thiophen-2-ylmethyl)-2,4-dihydro-3H-1,2,4-triazol-3-one hydrochloride], for which the IC50 on recombinant human VAP-1 was 3.1 nM; in assay [1], greater than 100000 nM; in assay [2] it was 2500 nM; in assay [3], 1400 nM.

As to `CN1CCC(n2cc(-c3ccc(Cn4cnn(C/C(=C/F)CN)c4=O)s3)cn2)CC1` [Example 159, 2-[(2E)-2-(aminomethyl)-3-fluoroprop-2-en-1-yl]-4-({5-[1-(1-methylpiperidin-4-yl)-1H-pyrazol-4-yl]thiophen-2-yl}methyl)-2,4-dihydro-3H-1,2,4-triazol-3-one], the IC50 at recombinant human VAP-1 is 4.3 nM; in assay [1], greater than 100000 nM; in assay [2] it was greater than 100000 nM; in assay [3] it was 1200 nM.

For the molecule `NC/C(=C/F)Cn1ncn(Cc2ccc(-c3ccc4c(c3)OCO4)s2)c1=O` [Example 60, 2-[(2Z)-2-(aminomethyl)-3-fluoroprop-2-en-1-yl]-4-[5-(1,3-benzodioxol-5-yl)thiophen-2-yl]methyl-2,4-dihydro-3H-1,2,4-triazol-3-one hydrochloride], the IC50 on recombinant human VAP-1 is 1.8 nM; in assay [1], greater than 10000 nM; in assay [2] it was less than 100 nM; in assay [3], 3000 nM.

Regarding `NC/C(=C\F)Cn1ncn(Cc2cc3cc(-c4ccc(N5CCNCC5)cc4)ccc3s2)c1=O` [Example 213, 2-[(2E)-2-(aminomethyl)-3-fluoroprop-2-en-1-yl]-4-({5-[4-(piperazin-1-yl)phenyl]-1-benzothiophen-2-yl}methyl)-2,4-dihydro-3H-1,2,4-triazol-3-one], the IC50 at recombinant human VAP-1 was 3 nM; in assay [1], greater than 100000 nM; in assay [2], 5200 nM; in assay [3], 1500 nM.

On to `NC/C(=C\F)Cn1ncn(Cc2ccc(-c3ccn4ncnc4c3)s2)c1=O` [Example 66, 2-[(2E)-2-(aminomethyl)-3-fluoroprop-2-en-1-yl]-4-[5-([1,2,4]triazolo[1,5-a]pyridin-7-yl)thiophen-2-yl]methyl-2,4-dihydro-3H-1,2,4-triazol-3-one hydrochloride], for which the concentration for half-maximal inhibition (IC50) was 0.5 nM on recombinant human VAP-1, greater than 10000 nM in assay [1], 1200 nM in assay [2] and 340 nM in assay [3].

On to `NC/C(=C\F)Cn1ncn(Cc2ccc(-c3cc(F)c4[nH]c(=O)ccc4c3)s2)c1=O` [Example 82, 6-[5-(1-[(2E)-2-(aminomethyl)-3-fluoroprop-2-en-1-yl]-5-oxo-1,5-dihydro-4H-1,2,4-triazol-4-ylmethyl)thiophen-2-yl]-8-fluoroquinolin-2(1H)-one hydrochloride], for which the IC50 is 0.1 nM at recombinant human VAP-1, greater than 100000 nM in assay [1], 6300 nM in assay [2] and 300 nM in assay [3].

In the case of `NC/C(=C\F)Cn1ncn(Cc2ccc(-c3ccc(S(=O)(=O)NC4CC4)cc3)s2)c1=O` [Example 197, 4-[5-({1-[(2E)-2-(aminomethyl)-3-fluoroprop-2-en-1-yl]-5-oxo-1,5-dihydro-4H-1,2,4-triazol-4-yl}methyl)thiophen-2-yl]-N-cyclopropylbenzenesulfonamide], the IC50 on recombinant human VAP-1 is 2 nM; in assay [1] it was greater than 100000 nM; in assay [2], 2700 nM; in assay [3] it was 340 nM.

In the case of `CN(C)C(=O)c1cccc(-c2ccc(Cn3cnn(C/C(=C/F)CN)c3=O)s2)c1` [Example 182, 3-[5-({1-[(2E)-2-(aminomethyl)-3-fluoroprop-2-en-1-yl]-5-oxo-1,5-dihydro-4H-1,2,4-triazol-4-yl}methyl)thiophen-2-yl]-N,N-dimethylbenzamide], the IC50 is 3.7 nM at recombinant human VAP-1, greater than 100000 nM in assay [1], 6600 nM in assay [2] and 3600 nM in assay [3].
